Test results as given in patent US12281102B2, “Inhibitors of APOL1 and methods of using same” (Vertex Pharmaceuticals Incorporated, priority 2020, dated 2025).
Like-named read-outs stand apart in the source and are kept apart here.

Columns and labels:
[1] = target: T1, APOL1 G1 Protein (Homo sapiens, UniProt O14791, I384M/S342G); experiment: Trypanosoma brucei brucei lysis assay using APOL1 recombinant protein (AlamarBlue viability); type: cell-based; conditions: Trypanosoma brucei brucei lysis with recombinant APOL1 protein
T1 sequence (O14791 28-398 S342G/I384M): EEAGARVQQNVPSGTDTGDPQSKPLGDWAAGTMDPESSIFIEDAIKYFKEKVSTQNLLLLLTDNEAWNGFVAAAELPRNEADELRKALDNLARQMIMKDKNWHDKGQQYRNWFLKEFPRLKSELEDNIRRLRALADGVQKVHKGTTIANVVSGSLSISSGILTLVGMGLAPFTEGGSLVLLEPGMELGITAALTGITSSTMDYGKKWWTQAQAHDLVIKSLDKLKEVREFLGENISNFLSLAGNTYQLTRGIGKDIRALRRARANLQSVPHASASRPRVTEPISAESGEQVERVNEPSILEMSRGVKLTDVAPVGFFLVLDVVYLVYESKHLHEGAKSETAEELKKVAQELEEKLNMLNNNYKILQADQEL

[2] = target: T2, G1 APOL1 (Homo sapiens, UniProt O14791, I384M/S342G); experiment: Acute APOL1 Thallium Assay with inducible stable clones of HEK 293 cells; type: cell-based; conditions: HEK 293 T-Rex inducible stable clone expressing G1 APOL1
T2 construct: expressed in transfected cells
T2 sequence (O14791 28-398 S342G/I384M): T1 sequence (O14791 28-398 S342G/I384M)
How it was run: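 APOL1 pore function was measured as thallium influx, detected by a Tl+-sensitive fluorescent dye loaded as AM ester, on a FLIPR Tetra after Tl+ addition. Cells were HEK T-Rex G1 APOL1 clone DC3.25, 26,000 per well, induced with tetracycline at plating in Opti-MEM assay medium.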

[3] = read-out: Thallium Assay (IC50)

SMILES	IC50 [2, 3]	also measured
COc1ccc(-c2[nH]c3c(F)cc(F)cc3c2C2CC(N)C2)cc1 (mixture of isomers) [Compound 12, 3-[5,7-difluoro-2-(4-methoxyphenyl)-1H-indol-3-yl]cyclobutanamine]	250 to 1000 nM	IC50 [1]: < 250 nM
NC1CC2(C1)CC(c1c(-c3ccc(F)cc3)[nH]c3c(F)cc(F)cc13)C2 (centres unmarked) [Compound 432, 6-[5,7-difluoro-2-(4-fluorophenyl)-1H-indol-3-yl]spiro[3.3]heptan-2-amine]	> 1000 nM	IC50 [1]: < 250 nM
NC[C@]1(O)C[C@@H](c2c(-c3ccc(F)cc3)[nH]c3c(F)cc(F)cc32)C1 [Compound 430, (1s,3s)-1-(aminomethyl)-3-(5,7-difluoro-2-(4-fluorophenyl)-1H-indol-3-yl)cyclobutan-1-ol]	250 to 1000 nM	
CC(C)C(O)C(=O)NC[C@H]1C[C@@H](c2c(-c3ccc(F)cc3)[nH]c3c(F)cc(F)cc32)C1 (some centres unmarked) [Compound 301]	> 1000 nM	
O=C(CC1CS(=O)(=O)C1)NC[C@H]1C[C@H](c2c(-c3ccc(F)cc3)[nH]c3c(F)cc(F)cc32)C1 [Compound 261]	> 1000 nM	
CC(C)(C)OC(=O)N1C[C@@H](O)C[C@H]1C(=O)NC[C@H]1C[C@H](c2c(-c3ccc(F)cc3)[nH]c3c(F)cc(F)cc32)C1 [Compound 252]	> 1000 nM	
Cn1cnc(CNS(=O)(=O)NC[C@H]2C[C@H](c3c(-c4ccc(F)cc4)[nH]c4c(F)cc(F)cc43)C2)c1 [Compound 367]	> 1000 nM	
O=C(NC[C@H]1C[C@H](c2c(-c3ccc(F)cc3)[nH]c3c(F)cc(F)cc32)C1)C1CC(F)(F)CN1 (some centres unmarked) [Compound 223]	250 to 1000 nM	
CC(C)(C)OC(=O)N1CC[C@H]1C(=O)NC[C@H]1C[C@H](c2c(-c3ccc(F)cc3)[nH]c3c(F)cc(F)cc32)C1 [Compound 216]		IC50 ([2]; Thallium Assay (IC50)): 250 to 1000 nM
N#CCC(=O)N[C@H]1C[C@@H](c2c(-c3ccc(F)cc3)[nH]c3c(F)cc(F)cc32)C1 [Compound 67]	> 1000 nM	
CN(C)C(=O)CCC(=O)NC[C@H]1C[C@@H](c2c(-c3ccc(F)cc3)[nH]c3c(F)cc(F)cc32)C1 [Compound 454, N^1-(((1s,3s)-3-(5,7-difluoro-2-(4-fluorophenyl)-1H-indol-3-yl)cyclobutyl)methyl)-N^4,N^4-dimethylsuccinamide]	> 1000 nM	
CC(C)(O)C(=O)N[C@H]1C[C@H](c2c(-c3ccc(F)cc3)[nH]c3c(F)cc(F)cc32)C1 [Compound 133]	< 250 nM	
O=C(NC1CC(c2c(-c3ccc(F)cc3)[nH]c3c(F)cc(F)cc23)C1)OCc1ccccc1 (centres unmarked) [Compound 13, benzyl N-[3-[5,7-difluoro-2-(4-fluorophenyl)-1H-indol-3-yl]cyclobutyl]carbamate]	> 1000 nM	
O=C(Cn1cnnc1)N[C@H]1C[C@H](c2c(-c3ccc(F)cc3)[nH]c3c(F)cc(F)cc32)C1 [Compound 139]	> 1000 nM	
Cc1cc(-c2[nH]c3c(F)cc(F)cc3c2C2CC(CN)C2)ccc1F (centres unmarked) [Compound 179]	< 250 nM	
O=C(NC[C@H]1C[C@H](c2c(-c3ccc(F)cc3)[nH]c3c(F)cc(F)cc32)C1)c1ccc[nH]1 [Compound 314]	> 1000 nM	
CC(C)C(O)C(=O)N[C@H]1C[C@H](c2c(-c3ccc(F)cc3)[nH]c3c(F)cc(F)cc32)C1 (some centres unmarked) [Compound 93]	250 to 1000 nM	
O=c1[nH]c2ccc(S(=O)(=O)NC[C@H]3C[C@H](c4c(-c5ccc(F)cc5)[nH]c5c(F)cc(F)cc54)C3)cc2[nH]1 [Compound 418]	> 1000 nM	
CC1(C(=O)N[C@H]2C[C@H](c3c(-c4ccc(F)cc4)[nH]c4c(F)cc(F)cc43)C2)CCC(=O)NC1 (mixture of isomers) [Compound 97]	> 1000 nM	
NC1CC(c2c(-c3ccc(F)cc3)[nH]c3c(F)cc(C(F)(F)F)cc23)C1 (mixture of isomers) [Compound 1, 3-[7-fluoro-2-(4-fluorophenyl)-5-(trifluoromethyl)-1H-indol-3-yl]cyclobutanamine]	> 1000 nM	
NC1CC(c2c(-c3ccc(OC(F)(F)F)cc3)[nH]c3c(F)cc(F)cc23)C1 (centres unmarked) [Compound 8, 3-[5,7-difluoro-2-[4-(trifluoromethoxy)phenyl]-1H-indol-3-yl]cyclobutanamine]	250 to 1000 nM	
CS(=O)(=O)NCC(=O)N[C@H]1C[C@H](c2c(-c3ccc(F)cc3)[nH]c3c(F)cc(F)cc32)C1 [Compound 107]	> 1000 nM	
O=C1NCCC1C(=O)N[C@H]1C[C@@H](c2c(-c3ccc(F)cc3)[nH]c3c(F)cc(F)cc32)C1 (some centres unmarked) [Compound 69]	> 1000 nM	
NS(=O)(=O)CCC(=O)N[C@H]1C[C@H](c2c(-c3ccc(F)cc3)[nH]c3c(F)cc(F)cc32)C1 [Compound 116]	250 to 1000 nM	
O=C(NC[C@H]1C[C@@H](c2c(-c3ccc(F)cc3)[nH]c3c(F)cc(F)cc32)C1)C1COC1 [Compound 226]	250 to 1000 nM	
CC(C)S(=O)(=O)N[C@H]1C[C@H](c2c(-c3ccc(F)cc3)[nH]c3c(F)cc(F)cc32)C1 [Compound 149]	250 to 1000 nM	
NS(=O)(=O)CCC(=O)N[C@H]1C[C@@H](c2c(-c3ccc(F)cc3)[nH]c3c(F)cc(F)cc32)C1 [Compound 51]	> 1000 nM	
NC(=O)CC(=O)NC[C@H]1C[C@H](c2c(-c3ccc(F)cc3)[nH]c3c(F)cc(F)cc32)C1 [Compound 450, N^1-(((1r,3r)-3-(5,7-difluoro-2-(4-fluorophenyl)-1H-indol-3-yl)cyclobutyl)methyl)malonamide]	250 to 1000 nM	

More lines, main results first:

IC50 [2, 3]	SMILES	also measured
> 1000 nM	CS(=O)(=O)CCCC(=O)NC[C@H]1C[C@@H](c2c(-c3ccc(F)cc3)[nH]c3c(F)cc(F)cc32)C1 [Compound 308]	
< 250 nM	O=C(NC[C@H]1C[C@H](c2c(-c3ccc(F)cc3)[nH]c3c(F)cc(F)cc32)C1)[C@@H]1CCCN1 [Compound 199]	
250 to 1000 nM	O=C(N[C@H]1C[C@@H](c2c(-c3ccc(F)cc3)[nH]c3c(F)cc(F)cc32)C1)C1COC1 [Compound 71]	
250 to 1000 nM	O=C(NC[C@H]1C[C@@H](c2c(-c3ccc(F)cc3)[nH]c3c(F)cc(F)cc32)C1)C(F)F [Compound 219]	
> 1000 nM	O=C1NCC(C(=O)NC[C@H]2C[C@H](c3c(-c4ccc(F)cc4)[nH]c4c(F)cc(F)cc43)C2)O1 (some centres unmarked) [Compound 269]	
250 to 1000 nM	O=C1C[C@@H](C(=O)NC[C@H]2C[C@H](c3c(-c4ccc(F)cc4)[nH]c4c(F)cc(F)cc43)C2)N1 [Compound 218]	
250 to 1000 nM	CC(=O)NS(=O)(=O)NC[C@H]1C[C@H](c2c(-c3ccc(F)cc3)[nH]c3c(F)cc(F)cc32)C1 [Compound 371]	
> 1000 nM	O=C(NC[C@H]1C[C@H](c2c(-c3ccc(F)cc3)[nH]c3c(F)cc(F)cc32)C1)C1(O)CC1 [Compound 283]	
250 to 1000 nM	O=S(=O)(NC[C@H]1C[C@H](c2c(-c3ccc(F)cc3)[nH]c3c(F)cc(F)cc32)C1)NC1(CO)CC1 [Compound 343]	
> 1000 nM	O=C1CC[C@H](C(=O)NC[C@H]2C[C@H](c3c(-c4ccc(F)cc4)[nH]c4c(F)cc(F)cc43)C2)N1 [Compound 268]	
> 1000 nM	O=S(=O)(N[C@H]1C[C@@H](c2c(-c3ccc(F)cc3)[nH]c3c(F)cc(F)cc32)C1)C1COC1 [Compound 83]	
> 1000 nM	CC(C(=O)NC[C@H]1C[C@@H](c2c(-c3ccc(F)cc3)[nH]c3c(F)cc(F)cc32)C1)n1ccnc1 (some centres unmarked) [Compound 299]	
250 to 1000 nM	C[C@@H](O)C(=O)NC[C@H]1C[C@H](c2c(-c3ccc(F)cc3)[nH]c3c(F)cc(F)cc32)C1 [Compound 211]	
> 1000 nM	COCCC(=O)N[C@H]1C[C@@H](c2c(-c3ccc(F)cc3)[nH]c3c(F)cc(F)cc32)C1 [Compound 62]	
